Experimental findings from PubChem BioAssay (NCI) are described below.

Common to all, as to test: inhibition of tumour cell growth, NCI panel, 48 h
Assay [1] has as its system KM12 colon.
Assay [2] concerns SN12C renal.
Assay [3] relates to HCT-15 colon.
The test system of assay [4] is IGROV1 ovarian.
Assay [5] deals with UACC-257 melanoma.
Assay [6] concerns NCI-H460 lung.
The subject of assay [7] is SF-268 CNS.
The test system of assay [8] is 786-0 renal.
The subject of assay [9] is SK-OV-3 ovarian.
For assay [10], the system named is NCI-H522 lung.

“And” between values parts separate entries of the source, which are not always exact repeats. Identical values can stand only once.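 Exposure lasted 48 hours, with cells grown in 96-well plates and compounds tested at five concentrations. At the GI50, growth is halved. TGI denotes the concentration required for complete inhibition of growth.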 Bounds are passed on as bounds.

Take `CO[C@H]1/C=C/O[C@@]2(C)Oc3c(C)c(O)c4c(O)c(c(/C=N/N5C(C)CN(Cc6ccc(C#N)cc6)CC5C)c(O)c4c3C2=O)NC(=O)/C(C)=C\C=C\[C@H](C)[C@H](O)[C@@H](C)[C@@H](O)[C@@H](C)[C@H](OC(C)=O)[C@@H]1C` (stereo partly specified): the GI50 is 5.89 µM in [1]; 6.73 µM in assay [2]; 6.01 µM in assay [3]; 7.61 µM in assay [4]; 6.35 µM in [5]; 5.76 µM in assay [6]. Also, the GI50 is 9.58 µM in [7], 8.79 µM in [8], 9.55 µM in [9] and 6.22 µM in assay [10]. Moreover, the TGI came out at 12.7 µM in assay [1]; 13.6 µM in assay [2]; 14 µM in [3]; 16.4 µM in assay [4]; 15.8 µM in assay [5]; 14.1 µM in assay [6]. In addition, the TGI was found to be 24.1 µM in [7], 16.8 µM in [8], 23.4 µM in assay [9] and 22 µM in assay [10].
Regarding `C=CCN=C1NC(=O)C(CC(=O)Nc2cccc(Cl)c2)S1` (stereo unspecified), the TGI in [1], in assay [2], in assay [3], in assay [4], in assay [5] and in [6] was more than 100 µM in each case. Moreover, the TGI in [7], in assay [8], in assay [9] and in [10] was more than 100 µM each time.
Turning to `O=C(O)c1nn(-c2ccc(Cl)cc2)c2c1C(=O)c1ccccc1C2=O`, the TGI in [1], in assay [2], in [3], in [4], in assay [5] and in assay [6] was more than 100 µM each time. Further, the TGI in assay [7], in [8], in assay [9] and in [10] was more than 100 µM in each case.
`COc1nc2c(c(=O)n1C)CN(c1ccccc1)C(=O)CN2C`: the GI50 was 27.3 µM in assay [1]; 56.4 µM in [2]; 56.7 µM in [3]; 4.33 µM in [4]; more than 100 µM in [5]; 60.2 µM in assay [6]. For the same compound, the GI50 in [7] is 36.8 µM; in assay [8], more than 100 µM; in assay [9] it was more than 100 µM; in [10] it was 96.7 µM. In addition, the TGI in [1], in assay [2], in assay [3], in assay [4], in assay [5] and in assay [6] was more than 100 µM in each case. Besides, the TGI in assay [7], in assay [8], in [9] and in [10] was more than 100 µM throughout.
On to `CN1CCN(c2ccncc2S(=O)(=O)N2CCN(C)CC2)CC1`, for which the TGI in assay [1], in [3], in assay [4], in assay [5], in assay [6] and in assay [7] was more than 100 µM each time. The TGI in assay [8], in [9] and in assay [10] was more than 100 µM each time.
Turning to `C#Cc1cccc(Nc2nc(C)nc3cc(NC(=O)CCl)ccc23)c1`, the GI50 is 4.13 µM in [1]; 0.896 µM in assay [2]; 0.687 µM in [3]; 0.533 µM in assay [4]; 4.07 µM in [5]; 3.23 µM in assay [6]. Further, the GI50 in assay [7] was 2.62 µM; in assay [8] it was 0.461 µM; in assay [9], 3.81 µM; in assay [10], 0.454 µM. Moreover, the TGI in [1] was 8.15 µM; in [2], 3.58 µM; in assay [3], 2.64 µM; in assay [4], 1.37 µM; in assay [5], 7.62 µM; in [6], 7.19 µM. Besides, the TGI is 6.82 µM in [7], 1.03 µM in assay [8], 7.31 µM in assay [9] and 0.92 µM in [10].
As for `CN1C(c2ccccc2)CC(=NO)CC1c1ccccc1` (stereo unspecified), the GI50 in assay [1] is 49.1 µM; in [2], 30.6 µM; in assay [3] it was 41.1 µM; in assay [5], 26.8 µM; in assay [6] it was 41.2 µM; in assay [8] it was 95.7 µM. For the same compound, in [10], the GI50 was 39.7 µM. Moreover, the TGI is more than 100 µM in assay [1]; 58.9 µM and 97.1 µM in [2]; more than 100 µM in assay [3]; more than 100 µM in assay [4]; > 100 µM and 79.9 µM in assay [5]; more than 100 µM in assay [6]. Further, the TGI in assay [7], in assay [8], in [9] and in assay [10] was more than 100 µM in each case.
On to `CCCC(=O)Oc1ccc(/C=N/NC(N)=S)nc1`, for which the TGI in assay [1], in assay [2], in assay [3], in assay [4], in assay [5] and in assay [6] was more than 100 µM throughout. Moreover, the TGI in assay [7], in assay [8], in [9] and in assay [10] was more than 100 µM in each case.
With `COc1ccc(-c2oc3ncnc(N)c3c2-c2ccc(NC(=O)Nc3cc(C(F)(F)F)ccc3F)cc2)cc1`, the GI50 was 0.00588 µM in assay [1]; 0.828 µM in assay [2]; 1.04 µM in assay [3]; 0.995 µM in assay [4]; 2.46 µM in assay [5]; 0.85 µM in assay [6]. The GI50 in [7] was 1.03 µM; in assay [8], 1.45 µM; in [9], 0.894 µM; in assay [10], 1.23 µM. For the same compound, the TGI is 1.51 µM in assay [1]; 3.75 µM in assay [2]; 6.65 µM in [3]; 5.82 µM in assay [4]; 6.69 µM in assay [5]; 2.97 µM in assay [6]. Also, the TGI in assay [7] was 3.76 µM; in [8] it was 5.49 µM; in [9], 5.09 µM; in assay [10] it was 4.28 µM.
